What was measured:
Assay type in all cases: in vivo
[1] = single-rising dose (SRD) first-in-human study, safety evaluation
Procedure: (§1) Four clinical studies including a single-rising dose (SRD) first-in-human study, a single-dose positron emission tomography (PET) target occupancy study, a multiple-rising dose (MRD) study, and a single-dose relative bioavailability (BA) and food-effect study were conducted.

CH24H = target: T1, CH24H (Homo sapiens, UniProt Q9Y6A2); test: single-dose positron emission tomography (PET) target occupancy study
T1 construct: single-dose positron emission tomography (PET) target occupancy study; from tissue; host or cells: brain of study participants, in vivo (brain is inferred from the statement that CH24H is expressed in neurons)
Procedure: as §1
The pharmacokinetics (PK) and pharmacodynamics (PD) of (4-benzyl-4-hydroxypiperidin-1-yl) (2,4′-bipyridin-3-yl)methanone were characterized in these studies.

Scn1a+/−mice = test: spontaneous seizures in Scn1a+/− mouse model of Dravet syndrome; details: chow containing 0.02% (w/w) for 2 weeks, started at 17-18 days after birth; control group 23.9%
Procedure: The following Example provides data from a heterozygous deletion of a Scn1a mouse model (Scn1a+/−mice) of Dravet syndrome, a developmental epileptic encephalopathy subtype. Myoclonic and generalized tonic-clonic seizures are observed, which correlate to symptoms in humans. Therefore, (4-benzyl-4-hydroxypiperidin-1-yl) (2,4′-bipyridin-3-yl)methanone was tested in Scn1a+/−mice for its potential effects on seizure. At 17-18 days after birth, mice were weaned and started on treatment either with control chow or chow containing (4-benzyl-4-hydroxypiperidin-1-yl) (2,4′-bipyridin-3-yl)methanone 0.02% (w/w) for 2 weeks. Spontaneous seizures were continuously monitored. The seizure free rate during the study period for the control group was 23.9%.

T1 sequence (Q9Y6A2 whole entry): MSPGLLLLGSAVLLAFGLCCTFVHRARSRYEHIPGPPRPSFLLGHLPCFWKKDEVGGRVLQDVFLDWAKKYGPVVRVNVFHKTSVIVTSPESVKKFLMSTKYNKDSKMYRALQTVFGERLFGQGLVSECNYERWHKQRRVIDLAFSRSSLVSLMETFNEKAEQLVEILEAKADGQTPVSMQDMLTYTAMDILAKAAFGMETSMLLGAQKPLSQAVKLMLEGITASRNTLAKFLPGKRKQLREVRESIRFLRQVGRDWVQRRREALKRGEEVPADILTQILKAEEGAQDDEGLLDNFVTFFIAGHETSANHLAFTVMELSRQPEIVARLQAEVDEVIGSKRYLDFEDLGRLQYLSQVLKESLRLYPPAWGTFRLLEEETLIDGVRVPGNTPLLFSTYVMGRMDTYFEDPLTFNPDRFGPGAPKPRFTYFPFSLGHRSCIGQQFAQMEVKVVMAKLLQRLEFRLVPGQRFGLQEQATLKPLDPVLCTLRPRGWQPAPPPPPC

## O=C(c1cccnc1-c1ccncc1)N1CCC(O)(Cc2ccccc2)CC1 [(4-benzyl-4-hydroxypiperidin-1-yl) (2,4′-bipyridin-3-yl)methanone]
[1]; all cohorts, 15-1350 mg single oral dose
  serious pretreatment events or post treatment adverse events: No serious pretreatment events or post treatment adverse events were reported
[1]; doses up to 1350 mg single dose, healthy male and female subjects
  safety and tolerability: generally safe and well tolerated
CH24H
  plasma 24HC concentrations: dose-dependent decreases
CH24H; correlated with circulating levels of 24HC
  PET occupancy measurements: dose- and time-dependent
Scn1a+/−mice
  seizure free rate during the study period: 91.7%

— US11285139B2, “Treatment of CNS conditions” (Takeda Pharmaceutical Company Limited, priority 2017, dated 2022)
